How the values were obtained:
E. faecium ATCC19434 = test: MIC, agar plate dilution method, E. faecium ATCC19434; type: cell-based, Enterococcus faecium; settings: for MIC: Enterococcus faecium, ATCC19434, E. faecium ATCC19434, read-out: minimal inhibitory concentration (MIC); for minimal inhibitory concentration (MIC): E. faecium ATCC19434
Method in brief: (§1)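 Japan Society of Chemotherapy agar dilution protocol used. MIC reported in μg/mL.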

S. aureus RN4220/pMS520 = test: MIC, agar plate dilution method, S. aureus RN4220/pMS520; type: cell-based, Staphylococcus aureus; settings: for MIC: Staphylococcus aureus, MRSA, read-out: minimal inhibitory concentration (MIC), S. aureus RN4220/pMS520, MRSA; for minimal inhibitory concentration (MIC): S. aureus RN4220/pMS520, MRSA
Method in brief: as §1

S. aureus MF490 = test: MIC, agar plate dilution method, S. aureus MF490; type: cell-based, Staphylococcus aureus; settings: for MIC: Staphylococcus aureus, MRSA, read-out: minimal inhibitory concentration (MIC); for minimal inhibitory concentration (MIC): S. aureus MF490, MRSA
Method in brief: as §1

P. aeruginosa PAO1 = test: MIC, agar plate dilution method, P. aeruginosa PAO1; type: cell-based, Pseudomonas aeruginosa; settings: for MIC: Pseudomonas aeruginosa, PAO1, P. aeruginosa PAO1, Sensitive bacterium, read-out: minimal inhibitory concentration (MIC); for minimal inhibitory concentration (MIC): P. aeruginosa PAO1, Sensitive bacterium
Method in brief: as §1

[1] = tested on: K. pneumoniae ATCC BAA-1705; test: MIC, agar plate dilution method, K. pneumoniae ATCC BAA-1705; type: cell-based, Klebsiella pneumoniae; settings: for MIC: Klebsiella pneumoniae, ATCCBAA1705, K. pneumoniae ATCC BAA-1705, KPC-producing strain, read-out: minimal inhibitory concentration (MIC); for minimal inhibitory concentration (MIC): K. pneumoniae ATCC BAA-1705, KPC-producing strain
Method in brief: as §1

[2] = tested on: A. baumannii ATCC BAA-1710; test: MIC, agar plate dilution method, A. baumannii ATCC BAA-1710; type: cell-based, Acinetobacter baumannii; settings: for MIC: Acinetobacter baumannii, ATCCBAA1710, A. baumannii ATCC BAA-1710, MDRA, read-out: minimal inhibitory concentration (MIC); for minimal inhibitory concentration (MIC): A. baumannii ATCC BAA-1710, MDRA
Method in brief: as §1

E. coli JM109/pMW218 = test: MIC, agar plate dilution method, E. coli JM109/pMW218; type: cell-based, Escherichia coli; settings: for MIC: Escherichia coli, JM109/PMW218, E. coli JM109/pMW218, Sensitive bacterium, read-out: minimal inhibitory concentration (MIC); for minimal inhibitory concentration (MIC): E. coli JM109/pMW218, Sensitive bacterium
Method in brief: as §1

S. marcescens GN6944 = test: MIC, agar plate dilution method, S. marcescens GN6944; type: cell-based, Serratia marcescens; settings: S. marcescens GN6944, GM-resistant; for MIC: Serratia marcescens, read-out: minimal inhibitory concentration (MIC)
Method in brief: as §1

P. aeruginosa PAO1/GN315 = test: MIC, agar plate dilution method, P. aeruginosa PAO1/GN315; type: cell-based, Pseudomonas aeruginosa; settings: for MIC: Pseudomonas aeruginosa, read-out: minimal inhibitory concentration (MIC), P. aeruginosa PAO1/GN315, AMK-resistant; for minimal inhibitory concentration (MIC): P. aeruginosa PAO1/GN315, AMK-resistant
Method in brief: as §1

[3] = tested on: K. pneumoniae ATCC BAA-2146; test: MIC, agar plate dilution method, K. pneumoniae ATCC BAA-2146; type: cell-based, Klebsiella pneumoniae; settings: for MIC: Klebsiella pneumoniae, ATCCBAA2146, K. pneumoniae ATCC BAA-2146, NDM-producing strain, read-out: minimal inhibitory concentration (MIC); for minimal inhibitory concentration (MIC): K. pneumoniae ATCC BAA-2146, NDM-producing strain
Method in brief: as §1

P. aeruginosa MSC17707 = test: MIC, agar plate dilution method, P. aeruginosa MSC17707; type: cell-based, Pseudomonas aeruginosa; settings: for MIC: Pseudomonas aeruginosa, MSC17707, P. aeruginosa MSC17707, AMK-resistant, read-out: minimal inhibitory concentration (MIC); for minimal inhibitory concentration (MIC): P. aeruginosa MSC17707, AMK-resistant
Method in brief: as §1

S. marcescens TH-0447 = test: MIC, agar plate dilution method, S. marcescens TH-0447; type: cell-based, Serratia marcescens; settings: for MIC: Serratia marcescens, TH0447, S. marcescens TH-0447, AMK-resistant, read-out: minimal inhibitory concentration (MIC); for minimal inhibitory concentration (MIC): S. marcescens TH-0447, AMK-resistant
Method in brief: as §1

P. aeruginosa MSC01035 = test: MIC, agar plate dilution method, P. aeruginosa MSC01035; type: cell-based, Pseudomonas aeruginosa; settings: P. aeruginosa MSC01035, ABK-resistant; for MIC: Pseudomonas aeruginosa, read-out: minimal inhibitory concentration (MIC)
Method in brief: as §1

S. aureus RN4220 = test: MIC, agar plate dilution method, S. aureus RN4220; type: cell-based, Staphylococcus aureus; settings: for MIC: Staphylococcus aureus, RN4220, S. aureus RN4220, Sensitive bacterium, read-out: minimal inhibitory concentration (MIC); for minimal inhibitory concentration (MIC): S. aureus RN4220, Sensitive bacterium
Method in brief: as §1

CNC1C(O[C@H]2OC(CO)[C@@H](NC(=O)CCN)[C@H](O)C2O)O[C@H]2C[C@H](N)[C@@H](O[C@@H]3C(N)C[C@@H](N)C[C@H]3O)OC2C1O (stereo partly drawn) [Compound V1-q, 4″-N-(β-alanyl)-6-deoxy-5-epiapramycin]
8 µg/mL: MIC (E. faecium ATCC19434) | MIC (S. marcescens TH-0447)
2 µg/mL: MIC (P. aeruginosa PAO1) | MIC (P. aeruginosa MSC17707)
4 µg/mL: MIC (S. aureus MF490) | MIC [2] | MIC (S. marcescens GN6944) | MIC (P. aeruginosa PAO1/GN315) | MIC (P. aeruginosa MSC01035)
1 µg/mL: MIC (S. aureus RN4220/pMS520) | MIC [1] | MIC (E. coli JM109/pMW218) | MIC [3] | MIC (S. aureus RN4220)

CNCC(=O)N[C@@H]1C(CO)O[C@H](OC2O[C@H]3CC(N)[C@@H](O[C@@H]4C(N)C[C@@H](N)C(O)[C@H]4O)OC3C(O)C2NC)C(O)[C@H]1O (stereo partly drawn) [Compound V1-j, 5-epi-4″-N-sarcosylapramycin]
2 µg/mL: minimal inhibitory concentration (MIC) (S. aureus RN4220/pMS520) | minimal inhibitory concentration (MIC) (P. aeruginosa PAO1) | minimal inhibitory concentration (MIC) (P. aeruginosa MSC17707) | minimal inhibitory concentration (MIC) (S. aureus RN4220)
1 µg/mL: minimal inhibitory concentration (MIC) [1] | minimal inhibitory concentration (MIC) (E. coli JM109/pMW218) | minimal inhibitory concentration (MIC) [3]
8 µg/mL: minimal inhibitory concentration (MIC) (E. faecium ATCC19434) | minimal inhibitory concentration (MIC) [2] | minimal inhibitory concentration (MIC) (S. marcescens GN6944) | minimal inhibitory concentration (MIC) (S. marcescens TH-0447)
4 µg/mL: minimal inhibitory concentration (MIC) (S. aureus MF490) | minimal inhibitory concentration (MIC) (P. aeruginosa PAO1/GN315) | minimal inhibitory concentration (MIC) (P. aeruginosa MSC01035)

CNC1C(OC2OC(CO)C(N)CC2O)OC2CC(N)C(OC3CCC(N)CC3N)OC2C1O (stereo not shown) [Compound N7, 5,6,3″-trideoxyapramycin]
8 µg/mL: minimal inhibitory concentration (MIC) (S. aureus MF490) | minimal inhibitory concentration (MIC) [2] | minimal inhibitory concentration (MIC) (P. aeruginosa MSC17707) | minimal inhibitory concentration (MIC) (S. marcescens TH-0447) | minimal inhibitory concentration (MIC) (P. aeruginosa MSC01035)
16 µg/mL: minimal inhibitory concentration (MIC) (E. faecium ATCC19434)
2 µg/mL: minimal inhibitory concentration (MIC) (S. aureus RN4220/pMS520) | minimal inhibitory concentration (MIC) (S. aureus RN4220)
1 µg/mL: minimal inhibitory concentration (MIC) [1] | minimal inhibitory concentration (MIC) (E. coli JM109/pMW218) | minimal inhibitory concentration (MIC) [3]
4 µg/mL: minimal inhibitory concentration (MIC) (P. aeruginosa PAO1) | minimal inhibitory concentration (MIC) (S. marcescens GN6944) | minimal inhibitory concentration (MIC) (P. aeruginosa PAO1/GN315)

CNC1C(OC2OC(CO)C(N)C(O)C2O)OC2CC(N)C(OC3C(N)CC(N)CC3F)OC2C1O (stereo not shown) [Compound C8, 5,6-dideoxy-5-fluoroapramycin]
8 µg/mL: minimal inhibitory concentration (MIC) (S. aureus MF490) | minimal inhibitory concentration (MIC) [2] | minimal inhibitory concentration (MIC) (S. marcescens TH-0447) | minimal inhibitory concentration (MIC) (P. aeruginosa MSC01035)
4 µg/mL: minimal inhibitory concentration (MIC) (P. aeruginosa PAO1) | minimal inhibitory concentration (MIC) (S. marcescens GN6944) | minimal inhibitory concentration (MIC) (P. aeruginosa PAO1/GN315) | minimal inhibitory concentration (MIC) (P. aeruginosa MSC17707)
2 µg/mL: minimal inhibitory concentration (MIC) (S. aureus RN4220/pMS520) | minimal inhibitory concentration (MIC) (S. aureus RN4220)
1 µg/mL: minimal inhibitory concentration (MIC) [1] | minimal inhibitory concentration (MIC) (E. coli JM109/pMW218) | minimal inhibitory concentration (MIC) [3]
16 µg/mL: minimal inhibitory concentration (MIC) (E. faecium ATCC19434)

CNC1C(O[C@H]2OC(CO)[C@@H](NCCN)[C@H](O)C2O)O[C@H]2CC(N)[C@@H](O[C@@H]3C(N)C[C@@H](N)C[C@H]3O)OC2C1O (stereo partly shown) [Compound S1-m, 6-deoxy-4″-N-(2-aminoethyl)-5-epiapramycin]
2 µg/mL: MIC (S. aureus RN4220/pMS520) | MIC [1] | MIC (S. aureus RN4220)
4 µg/mL: MIC (P. aeruginosa PAO1) | MIC [2] | MIC (S. marcescens TH-0447)
1 µg/mL: MIC (E. coli JM109/pMW218) | MIC [3]
8 µg/mL: MIC (S. aureus MF490) | MIC (S. marcescens GN6944) | MIC (P. aeruginosa PAO1/GN315) | MIC (P. aeruginosa MSC17707) | MIC (P. aeruginosa MSC01035)
16 µg/mL: MIC (E. faecium ATCC19434)

Reference: patent US11135234B2, “Effective aminoglycoside antibiotic for multidrug-resistant bacteria” (MICROBIAL CHEMISTRY RESEARCH FOUNDATION, priority 2015, dated 2021)
